Results taken from patent publication US12371428B2 (Exelixis, Inc., priority 2019, dated 2025).
Read-outs that look alike come from different tables or passages of the source.

How the values were obtained:
Type in all cases: cell-based
[1] = target: AXL (phospho-AXL, Gas6-stimulated A-172 glioblastoma cells) (Homo sapiens (Human), UniProt P30530); experiment: AXL autophosphorylation ELISA in A-172 cells (Example E); details: cellular activity, read-out: Axl IC50
Procedure, shortened: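 Phospho-AXL was measured by ELISA in lysates of Gas6-stimulated A-172 cells, starved 24 h in serum-free medium and exposed 1 h to an 8-point compound dilution at 0.3% DMSO.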

[2] = target: Met (phospho-Met, HGF-stimulated PC-3 prostate cancer cells) (Homo sapiens (Human), UniProt P08581); experiment: Met autophosphorylation ELISA in PC-3 cells (Example F); details: cellular activity, read-out: c-Met IC50
Procedure, shortened: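 Compounds were tested on HGF-stimulated PC-3 cells. After 24 h culture and 3 h serum starvation, cells got compound for 1 h and 100 ng/mL HGF for 10 min, and Met tyrosine phosphorylation was measured by ELISA.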

[3] = target: KDR (phospho-KDR, VEGF165-stimulated HUVEC cells) (Homo sapiens (Human), UniProt P35968); experiment: KDR autophosphorylation ELISA in HUVEC cells (Example G); details: cellular activity
Procedure, shortened: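 Read-out is phospho-KDR measured by ELISA in lysates of VEGF165-stimulated (100 ng/mL, 5 min) HUVEC that were serum-starved 24 h and then pre-exposed 1 h to compound across 8 doses in 0.3% DMSO. Unstimulated lysates defined 0% and stimulated vehicle lysates 100% activity; IC50 values come from 4-parameter logistic regression.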

[4] = target: Mer (phospho-Mer, MERTK-transfected 293A cells) (Homo sapiens (Human), UniProt Q12866); experiment: Mer autophosphorylation ELISA in transient transfected 293A cells (Example H); details: cellular activity
Procedure, shortened: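 IC50 from 4-parameter logistic fit of phospho-Mer levels, quantified by ELISA against a phospho-Mer standard in lysates of MERTK-transfected 293A cells. Cells exposed 1 h to 8-point serial dilutions, serum-free, 0.3% DMSO; controls: DMSO (100%) and reference inhibitor (0%).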

[5] = AXL autophosphorylation ELISA in A-172 cells
[6] = Met autophosphorylation ELISA in PC-3 cells
[7] = KDR autophosphorylation ELISA in HUVEC cells
[8] = Mer autophosphorylation ELISA in transient transfected 293A cells

Sequence of AXL (phospho-AXL, Gas6-stimulated A-172 glioblastoma cells) (P30530 26-894): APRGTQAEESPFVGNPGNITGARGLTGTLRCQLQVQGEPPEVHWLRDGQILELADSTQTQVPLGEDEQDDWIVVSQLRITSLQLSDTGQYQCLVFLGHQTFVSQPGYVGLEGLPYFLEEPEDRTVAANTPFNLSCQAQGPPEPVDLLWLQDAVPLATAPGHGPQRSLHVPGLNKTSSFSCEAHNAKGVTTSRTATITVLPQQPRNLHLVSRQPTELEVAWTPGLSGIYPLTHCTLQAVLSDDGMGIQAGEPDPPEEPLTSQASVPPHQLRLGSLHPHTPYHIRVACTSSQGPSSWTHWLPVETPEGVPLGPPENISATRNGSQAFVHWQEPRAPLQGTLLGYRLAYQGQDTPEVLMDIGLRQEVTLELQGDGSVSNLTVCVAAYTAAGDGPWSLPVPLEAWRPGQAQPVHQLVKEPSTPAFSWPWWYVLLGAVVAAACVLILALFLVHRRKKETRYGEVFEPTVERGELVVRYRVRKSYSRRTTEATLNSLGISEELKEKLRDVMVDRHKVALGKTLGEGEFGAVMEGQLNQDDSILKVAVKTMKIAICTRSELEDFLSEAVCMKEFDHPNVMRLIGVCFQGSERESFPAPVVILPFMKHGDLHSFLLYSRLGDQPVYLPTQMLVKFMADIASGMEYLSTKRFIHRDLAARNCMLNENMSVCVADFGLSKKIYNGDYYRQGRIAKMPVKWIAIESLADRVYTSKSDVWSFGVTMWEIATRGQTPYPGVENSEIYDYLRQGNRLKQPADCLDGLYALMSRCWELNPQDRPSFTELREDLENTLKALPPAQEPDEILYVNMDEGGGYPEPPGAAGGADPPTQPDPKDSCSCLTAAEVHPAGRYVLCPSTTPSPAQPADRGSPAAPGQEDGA
Sequence of Met (phospho-Met, HGF-stimulated PC-3 prostate cancer cells) (P08581 25-1390): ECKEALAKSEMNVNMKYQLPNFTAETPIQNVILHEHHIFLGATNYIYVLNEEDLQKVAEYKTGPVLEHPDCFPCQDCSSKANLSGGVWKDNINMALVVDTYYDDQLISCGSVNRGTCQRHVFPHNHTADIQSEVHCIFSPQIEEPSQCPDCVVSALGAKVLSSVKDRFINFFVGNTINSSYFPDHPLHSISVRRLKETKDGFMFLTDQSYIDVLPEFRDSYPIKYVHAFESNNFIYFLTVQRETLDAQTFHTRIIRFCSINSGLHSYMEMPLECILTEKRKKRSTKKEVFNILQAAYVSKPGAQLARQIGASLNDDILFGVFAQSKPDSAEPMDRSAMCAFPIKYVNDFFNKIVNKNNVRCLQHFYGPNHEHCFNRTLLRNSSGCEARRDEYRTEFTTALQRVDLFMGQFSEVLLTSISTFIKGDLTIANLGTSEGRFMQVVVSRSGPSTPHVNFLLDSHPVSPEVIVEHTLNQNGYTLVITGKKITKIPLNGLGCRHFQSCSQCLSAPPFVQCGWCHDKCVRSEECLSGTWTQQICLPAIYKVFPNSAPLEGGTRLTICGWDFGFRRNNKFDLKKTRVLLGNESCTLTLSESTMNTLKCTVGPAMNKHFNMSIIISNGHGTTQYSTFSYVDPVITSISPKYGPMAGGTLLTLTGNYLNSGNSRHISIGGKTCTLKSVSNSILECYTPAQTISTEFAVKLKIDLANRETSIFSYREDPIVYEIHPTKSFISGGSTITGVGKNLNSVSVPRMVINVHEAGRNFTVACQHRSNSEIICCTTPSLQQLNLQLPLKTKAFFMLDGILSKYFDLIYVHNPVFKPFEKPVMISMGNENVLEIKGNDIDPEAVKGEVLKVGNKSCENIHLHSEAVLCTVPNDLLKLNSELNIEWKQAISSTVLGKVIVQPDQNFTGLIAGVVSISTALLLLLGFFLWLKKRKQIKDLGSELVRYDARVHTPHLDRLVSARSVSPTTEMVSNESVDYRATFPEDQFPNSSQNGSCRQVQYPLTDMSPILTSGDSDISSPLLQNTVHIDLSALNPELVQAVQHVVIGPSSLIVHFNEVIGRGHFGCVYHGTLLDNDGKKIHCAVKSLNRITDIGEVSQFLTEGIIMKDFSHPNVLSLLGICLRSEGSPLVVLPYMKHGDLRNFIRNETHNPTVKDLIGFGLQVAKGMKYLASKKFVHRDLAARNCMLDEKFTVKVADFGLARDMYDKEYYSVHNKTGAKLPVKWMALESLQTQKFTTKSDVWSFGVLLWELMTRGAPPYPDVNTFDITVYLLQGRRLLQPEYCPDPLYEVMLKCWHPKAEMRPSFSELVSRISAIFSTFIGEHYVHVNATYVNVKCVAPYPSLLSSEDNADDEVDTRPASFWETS
Sequence of Mer (phospho-Mer, MERTK-transfected 293A cells) (Q12866 21-999): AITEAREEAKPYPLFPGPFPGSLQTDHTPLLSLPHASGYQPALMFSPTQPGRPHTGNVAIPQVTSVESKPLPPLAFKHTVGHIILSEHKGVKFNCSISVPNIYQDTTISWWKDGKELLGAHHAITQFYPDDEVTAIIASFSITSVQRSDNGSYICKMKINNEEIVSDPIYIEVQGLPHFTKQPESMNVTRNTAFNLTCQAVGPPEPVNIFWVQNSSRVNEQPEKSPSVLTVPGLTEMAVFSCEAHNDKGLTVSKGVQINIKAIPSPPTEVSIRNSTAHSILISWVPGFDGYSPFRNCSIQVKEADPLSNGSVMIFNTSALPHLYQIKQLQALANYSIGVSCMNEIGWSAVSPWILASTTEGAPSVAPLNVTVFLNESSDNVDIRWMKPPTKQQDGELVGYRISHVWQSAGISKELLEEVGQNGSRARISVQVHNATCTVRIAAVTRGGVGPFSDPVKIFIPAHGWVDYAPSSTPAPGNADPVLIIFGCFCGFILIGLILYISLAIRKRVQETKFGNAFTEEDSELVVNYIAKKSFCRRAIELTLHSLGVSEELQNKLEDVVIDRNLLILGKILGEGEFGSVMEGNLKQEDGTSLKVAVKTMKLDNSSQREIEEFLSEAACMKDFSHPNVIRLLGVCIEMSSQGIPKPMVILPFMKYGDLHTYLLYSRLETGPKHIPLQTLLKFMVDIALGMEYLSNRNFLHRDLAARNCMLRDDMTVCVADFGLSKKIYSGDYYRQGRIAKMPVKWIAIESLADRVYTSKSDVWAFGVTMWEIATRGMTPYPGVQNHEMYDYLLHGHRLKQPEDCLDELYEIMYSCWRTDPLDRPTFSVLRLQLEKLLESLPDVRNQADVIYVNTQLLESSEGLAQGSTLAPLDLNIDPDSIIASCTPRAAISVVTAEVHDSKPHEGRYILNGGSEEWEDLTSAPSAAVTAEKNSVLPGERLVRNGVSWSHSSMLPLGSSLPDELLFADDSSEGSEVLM
Sequence of KDR (phospho-KDR, VEGF165-stimulated HUVEC cells) (P35968 20-1356): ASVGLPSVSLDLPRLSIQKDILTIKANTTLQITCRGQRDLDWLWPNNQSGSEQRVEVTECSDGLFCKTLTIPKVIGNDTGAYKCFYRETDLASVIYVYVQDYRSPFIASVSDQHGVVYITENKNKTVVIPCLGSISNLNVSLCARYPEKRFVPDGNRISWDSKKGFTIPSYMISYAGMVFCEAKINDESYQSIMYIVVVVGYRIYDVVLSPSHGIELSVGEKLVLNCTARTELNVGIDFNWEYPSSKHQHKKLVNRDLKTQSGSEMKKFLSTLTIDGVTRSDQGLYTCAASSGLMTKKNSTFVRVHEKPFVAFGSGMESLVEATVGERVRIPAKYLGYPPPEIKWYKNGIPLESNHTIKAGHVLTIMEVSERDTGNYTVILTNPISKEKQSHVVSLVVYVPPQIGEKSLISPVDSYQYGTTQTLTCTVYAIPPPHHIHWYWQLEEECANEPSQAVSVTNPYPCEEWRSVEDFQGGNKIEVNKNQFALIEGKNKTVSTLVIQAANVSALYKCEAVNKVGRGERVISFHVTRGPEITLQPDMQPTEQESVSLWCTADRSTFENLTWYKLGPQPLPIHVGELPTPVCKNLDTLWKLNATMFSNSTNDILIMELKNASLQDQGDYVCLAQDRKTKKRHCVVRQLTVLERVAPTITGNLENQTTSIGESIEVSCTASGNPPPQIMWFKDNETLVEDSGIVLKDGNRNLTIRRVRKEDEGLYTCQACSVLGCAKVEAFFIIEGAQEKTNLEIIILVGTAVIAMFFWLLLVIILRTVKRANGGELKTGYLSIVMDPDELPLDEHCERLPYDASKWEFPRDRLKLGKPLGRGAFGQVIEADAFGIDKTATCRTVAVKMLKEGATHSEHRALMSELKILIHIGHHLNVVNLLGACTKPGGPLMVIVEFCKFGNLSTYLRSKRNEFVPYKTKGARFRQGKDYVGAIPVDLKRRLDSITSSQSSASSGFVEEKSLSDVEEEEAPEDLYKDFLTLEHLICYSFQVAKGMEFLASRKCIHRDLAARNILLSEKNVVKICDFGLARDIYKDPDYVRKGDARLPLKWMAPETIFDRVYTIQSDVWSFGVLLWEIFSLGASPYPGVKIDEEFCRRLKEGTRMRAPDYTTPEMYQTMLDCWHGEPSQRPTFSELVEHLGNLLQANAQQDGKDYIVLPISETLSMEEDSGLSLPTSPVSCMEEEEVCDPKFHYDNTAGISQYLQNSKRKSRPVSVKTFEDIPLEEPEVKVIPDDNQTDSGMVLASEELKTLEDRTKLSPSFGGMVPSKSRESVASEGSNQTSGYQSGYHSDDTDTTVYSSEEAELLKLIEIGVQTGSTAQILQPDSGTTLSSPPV

Row | SMILES | IC50 [1, 5] | IC50 [2, 6] | IC50 [3, 7] | IC50 [4, 8] | IC50 ([1]; A-172 cells) | IC50 ([2]; PC-3 cells) | IC50 ([3]; HUVEC cells) | IC50 ([4]; transfected 293A cells)
1 | COc1cc2nccc(Oc3ccc(NC(=O)c4nnc(C)c(-c5ccc(F)cc5)c4OC)cc3)c2nc1OC [Compound 534, N-[4-[(6,7-dimethoxy-1,5-naphthyridin-4-yl)oxy]phenyl]-5-(4-fluorophenyl)-4-methoxy-6-methylpyridazine-3-carboxamide] | < 100 nM | < 100 nM | < 100 nM | < 100 nM | – | – | – | –
2 | COc1cc2nccc(Oc3ccc(NC(=O)c4c(C)[nH]nc(-c5ccc(F)cc5)c4=O)cc3F)c2nc1OC [Compound 653, N-[4-[(6,7-dimethoxy-1,5-naphthyridin-4-yl)oxy]-3-fluorophenyl]-3-(4-fluorophenyl)-6-methyl-4-oxo-1H-pyridazine-5-carboxamide] | < 100 nM | < 100 nM | < 100 nM | < 100 nM | – | – | – | –
3 | CCOc1nc2c(Oc3ccc(NC(=O)c4c(C)ncc(-c5ccc(F)cc5)c4O)cc3F)ccnc2cc1OC [Compound 675, N-[4-[(6-ethoxy-7-methoxy-1,5-naphthyridin-4-yl)oxy]-3-fluorophenyl]-5-(4-fluorophenyl)-4-hydroxy-2-methylpyridine-3-carboxamide] | < 100 nM | < 100 nM | < 100 nM | < 100 nM | – | – | – | –
4 | COc1cc2nccc(Oc3ccc(NC(=O)c4c(C)c(C)cn(-c5ccc(F)cc5)c4=O)cc3F)c2nc1OC [Compound 679, N-[4-[(6,7-dimethoxy-1,5-naphthyridin-4-yl)oxy]-3-fluorophenyl]-1-(4-fluorophenyl)-4,5-dimethyl-2-oxopyridine-3-carboxamide] | < 100 nM | < 100 nM | < 100 nM | < 100 nM | – | – | – | –
5 | CCn1cc(-c2ccc(F)cc2)c(=O)c(C(=O)Nc2ccc(Oc3ccnc4cc(OC)c(OC)nc34)cc2)c1C [Compound 244, N-[4-[(6,7-Dimethoxy-1,5-naphthyridin-4-yl)oxy]phenyl]-1-ethyl-5-(4-fluorophenyl)-2-methyl-4-oxopyridine-3-carboxamide] | < 100 nM | < 100 nM | > 300 nM | < 100 nM | – | – | – | –
6 | Cc1cc2nccc(Oc3ccc(NC(=O)c4c(C)nc(C)c(-c5ccc(F)cc5)c4O)cc3F)c2nc1F [Compound 445, N-[3-fluoro-4-[(6-fluoro-7-methyl-1,5-naphthyridin-4-yl)oxy]phenyl]-5-(4-fluorophenyl)-4-hydroxy-2,6-dimethylpyridine-3-carboxamide] | < 100 nM | < 100 nM | < 100 nM | < 100 nM | – | – | – | –
7 | COc1ccc(-c2c(C)ncc(C(=O)Nc3ccc(Oc4ccnc5cc(OC)cnc45)c(F)c3)c2O)c(F)c1 [Compound 700, N-[3-fluoro-4-[(7-methoxy-1,5-naphthyridin-4-yl)oxy]phenyl]-5-(2-fluoro-4-methoxyphenyl)-4-hydroxy-6-methylpyridine-3-carboxamide] | > 300 nM | < 100 nM | < 100 nM | < 100 nM | – | – | – | –
8 | COc1cnc2c(Oc3ccc(NC(=O)c4c5n(cc(-c6ccc(F)cc6)c4=O)CCOC5)cc3F)ccnc2c1 [Compound 809, N-[3-fluoro-4-[(7-methoxy-1,5-naphthyridin-4-yl)oxy]phenyl]-7-(4-fluorophenyl)-8-oxo-3,4-dihydro-1H-pyrido[2,1-c][1,4]oxazine-9-carboxamide] | – | – | – | – | < 100 nM | < 100 nM | > 300 nM | < 100 nM
9 | COCCOc1cc2nccc(Oc3ccc(NC(=O)c4cn(C)c(C)c(-c5ccc(F)cc5)c4=O)cc3F)c2nc1OC [Compound 486, N-[3-fluoro-4-[[6-methoxy-7-(2-methoxyethoxy)-1,5-naphthyridin-4-yl]oxy]phenyl]-5-(4-fluorophenyl)-1,6-dimethyl-4-oxopyridine-3-carboxamide] | < 100 nM | < 100 nM | < 100 nM | < 100 nM | – | – | – | –
10 | COc1cc2nccc(Oc3ccc(NC(=O)c4c(OC)c(C(C)=O)cn(-c5ccc(F)cc5)c4=O)cc3)c2nc1OC [Compound 753, 5-acetyl-N-[4-[(6,7-dimethoxy-1,5-naphthyridin-4-yl)oxy]phenyl]-1-(4-fluorophenyl)-4-methoxy-2-oxopyridine-3-carboxamide] | < 100 nM | < 100 nM | > 300 nM | < 100 nM | – | – | – | –
11 | C=C(C)c1cnc2c(Oc3ccc(NC(=O)c4nn(C)c(C)c(-c5ccc(F)cc5)c4=O)cc3F)ccnc2c1 [Compound 477, 5-(4-fluorophenyl)-N-[3-fluoro-4-[(7-prop-1-en-2-yl-1,5-naphthyridin-4-yl)oxy]phenyl]-1,6-dimethyl-4-oxopyridazine-3-carboxamide] | < 100 nM | < 100 nM | > 300 nM | < 100 nM | – | – | – | –
12 | COc1ccc2nccc(Oc3ccc(NC(=O)c4nnc(C)c(-c5ccc(F)cc5)c4OC)cc3F)c2n1 [Compound 538, N-[3-fluoro-4-[(6-methoxy-1,5-naphthyridin-4-yl)oxy]phenyl]-5-(4-fluorophenyl)-4-methoxy-6-methylpyridazine-3-carboxamide] | < 100 nM | < 100 nM | < 100 nM | < 100 nM | – | – | – | –
13 | COc1ccc(-c2c(C)nc(C)c(C(=O)Nc3ccc(Oc4ccnc5cc(OC)cnc45)c(F)c3)c2O)c(F)c1 [Compound 691, N-[3-fluoro-4-[(7-methoxy-1,5-naphthyridin-4-yl)oxy]phenyl]-5-(2-fluoro-4-methoxyphenyl)-4-hydroxy-2,6-dimethylpyridine-3-carboxamide] | 100 to 300 nM | < 100 nM | < 100 nM | < 100 nM | – | – | – | –
14 | COc1cc2nccc(Oc3ccc(NC(=O)c4cn5cc(C)oc5c(-c5ccc(F)cc5)c4=O)cc3F)c2nc1OC [Compound 491, N-[4-[(6,7-dimethoxy-1,5-naphthyridin-4-yl)oxy]-3-fluorophenyl]-8-(4-fluorophenyl)-2-methyl-7-oxo-[1,3]oxazolo[3,2-a]pyridine-6-carboxamide] | < 100 nM | < 100 nM | > 300 nM | < 100 nM | – | – | – | –
15 | Cc1ccc2nccc(Oc3ccc(NC(=O)c4cn(C)c(CO)c(-c5ccc(F)cc5)c4=O)cc3F)c2n1 [Compound 749, N-[3-fluoro-4-[(6-methyl-1,5-naphthyridin-4-yl)oxy]phenyl]-5-(4-fluorophenyl)-6-(hydroxymethyl)-1-methyl-4-oxopyridine-3-carboxamide] | < 100 nM | < 100 nM | > 300 nM | < 100 nM | – | – | – | –
16 | COc1cc2nccc(Oc3ccc(NC(=O)c4cn5c(c(-c6ccc(F)cc6C)c4=O)COCC5)cc3F)c2nc1OC [Compound 766, N-[4-[(6,7-dimethoxy-1,5-naphthyridin-4-yl)oxy]-3-fluorophenyl]-9-(4-fluoro-2-methylphenyl)-8-oxo-3,4-dihydro-1H-pyrido[2,1-c][1,4]oxazine-7-carboxamide] | < 100 nM | < 100 nM | > 300 nM | < 100 nM | – | – | – | –
17 | COc1cnc2c(Oc3ccc(NC(=O)c4cn5c(c(-c6ccc(F)cc6)c4=O)COCC5)cc3F)ccnc2c1 [Compound 661, N-[3-fluoro-4-[(7-methoxy-1,5-naphthyridin-4-yl)oxy]phenyl]-9-(4-fluorophenyl)-8-oxo-3,4-dihydro-1H-pyrido[2,1-c][1,4]oxazine-7-carboxamide] | < 100 nM | < 100 nM | > 300 nM | < 100 nM | – | – | – | –
